Assays:
Type in all cases: cell-based, human
NCI-H249 SCLC cells [1] = assay: Cell growth of NCI-H249 SCLC cells (MTT assay); conditions: for cell growth after compound treatment: NCI-H249 SCLC cells, 5 days, FIG. 3b
Experimental: (§1) MTT assays were performed as described (Sriuranpong (2002), supra).

NCI-H157 NSCLC cells = assay: Cell growth of NCI-H157 NSCLC cells (MTT assay); conditions: 5 days, FIG. 3c
Experimental: as §1

NCI-H249 SCLC cells [2] = assay: Cell cycle analysis in NCI-H249 cells; conditions: unsynchronized NCI-H249 SCLC cells; 5 μM; 72 h; FIG. 3e
NCI-H249 SCLC cells [3] = assay: Cleaved PARP expression (apoptosis) by immunoblot; conditions: 5 μM, 72 h, FIG. 3f
Experimental: Whole-cell lysates were sonicated in 2% SDS/50 mM TrisHCl, pH 8. […] Anti-cleaved PARP was obtained from Promega.

Ptch mRNA = Ptch mRNA expression by northern blot analysis; conditions: NCI-H249 SCLC cells, FIG. 3g
[4] = test system: BMP4, nestin and ASH-1 transcripts; assay: RT-PCR analysis of transcripts in NCI-H249 SCLC cells; conditions: 48 h, FIG. 3h
Experimental: Total cellular RNA was treated with DNAse, reverse transcribed, and amplified for 31 cycles at an annealing temperature of 55° C. Primers used were: […]

NCI-H249 SCLC cells [5] = assay: Soft agar clonogenicity of NCI-H249 SCLC cells; conditions: FIG. 4a, b

CC1=C2C[C@H]3[C@@H](CC=C4CC(=O)CC[C@@]43C)[C@@H]2CC[C@]12O[C@@H]1C[C@H](C)CN(CCNC(=O)CCCCCNC(=O)CCc3ccccc3)[C@H]1[C@H]2C [KAAD-cyclopamine]
cell growth after compound treatment (NCI-H249 SCLC cells [1]): significant growth inhibition | cell growth after compound treatment (NCI-H157 NSCLC cells): None of KAAD-cyclopamine, cyclopamine or tomatidine was able to affect growth

CC1=C2C[C@H]3[C@@H](CC=C4C[C@@H](O)CC[C@@]43C)[C@@H]2CC[C@]12O[C@@H]1C[C@H](C)CN[C@H]1[C@H]2C [cyclopamine]
growth inhibition by cyclopamine in cells stably expressing Flag-tagged GLI-1 (NCI-H249 SCLC cells [1]; NCI-H249 SCLC cells stably transfected with Flag-Gli1, MTT, FIG. 3d): protected NCI-H249 SCLC cells from growth inhibition | growth inhibition by cyclopamine in cells expressing GLI-1 mutant lacking the zinc finger DNA-binding domain (NCI-H249 SCLC cells [1]; NCI-H249 SCLC cells stably transfected with Flag-Gli1ZFD, MTT, FIG. 3d): had no effect | cell cycle effect (NCI-H249 SCLC cells [2]): arrest of the cell cycle in Go/G1 | apoptosis (cleaved PARP) (NCI-H249 SCLC cells [3]): increase in cleaved PARP | Ptch mRNA expression (Ptch mRNA): downregulation | BMP4 expression [4]: inhibited expression | human ASH-1 expression [4]: inhibited expression | nestin expression [4]: inhibited expression | soft agar clonogenicity effect in cells overexpressing GLI-1 (NCI-H249 SCLC cells [5]; NCI-H249 SCLC cells stably transfected with Flag-Gli1, cyclopamine 5 μM): reversed | soft agar clonogenicity (NCI-H249 SCLC cells [5]; NCI-H249 SCLC cells): reduced soft agar clonogenicity

C[C@H]1CC[C@]2(NC1)O[C@H]1C[C@H]3[C@@H]4CC[C@H]5C[C@@H](O)CC[C@]5(C)[C@H]4CC[C@]3(C)[C@H]1[C@@H]2C [tomatidine]
cell growth after compound treatment (NCI-H249 SCLC cells [1]): no effect | cell growth after compound treatment (NCI-H157 NSCLC cells): None of KAAD-cyclopamine, cyclopamine or tomatidine was able to affect growth

From patent US20080057071A1, “Use Of Hedgehog Pathway Inhibitors In Small-Cell Lung Cancer” (priority 2003, published 2008)
